Consider eight compounds from publication PMC9920567, “Discovery of Bis-Imidazoline Derivatives as New CXCR4 Ligands” (Molecules, 2023).

In test [1] the target is T1, CXCR4 (Homo sapiens, UniProt P61073). The test is described as follows: HTRF dilution series assay on CXCR4 (displacement of red-CXCL12). Type of test: binding. As to conditions: for inhibition of HTRF at high concentrations: dilution series; for IC50: HEK293 ST-CXCR4 cells, red-CXCL12 20 nM, 2 h 16 °C, one-site competitive model, read-out: HTRF CXCR4-SDF1 IC50. How it is done: To obtain information on the structural requirements necessary for the interaction with CXCR4, we performed dilution series experiments (see Section 3.4.) by varying the concentrations of bis-imidazoline compounds in the HTRF assay used for the screening campaign (Table 1 and Figure 1A).
T1 sequence (P61073 whole entry): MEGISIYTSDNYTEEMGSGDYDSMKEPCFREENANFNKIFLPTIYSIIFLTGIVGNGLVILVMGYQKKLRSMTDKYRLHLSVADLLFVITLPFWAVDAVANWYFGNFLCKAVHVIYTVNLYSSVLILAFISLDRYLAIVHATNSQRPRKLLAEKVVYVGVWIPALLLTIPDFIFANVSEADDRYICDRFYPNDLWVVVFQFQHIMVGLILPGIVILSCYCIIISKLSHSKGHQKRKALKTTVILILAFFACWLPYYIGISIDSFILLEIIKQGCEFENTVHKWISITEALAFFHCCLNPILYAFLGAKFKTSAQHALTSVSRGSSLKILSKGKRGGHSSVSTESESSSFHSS
A three-fold serial dilution in DMSO was performed for each compound. Each concentration was tested in duplicate. For these experiments, Tag-lite CXCR4 and Tag-lite CXCR7 cell lines (5000 cells per well) were used. […] The IC50 values were determined with the Prism Software version 9 (Graph-Pad Software, San Diego, USA) using a one-site competitive binding model.
Data points are means ± SEM for three independent experiments.
Background: In TR-FRET formats the signal depends on donor and acceptor labels being close together.

The subject of test [2] is CXCR4-using HIV-1 strains. In kind it is cell-based.
The subject of another test is HIV-1 NL4-3 Env. The test can be described thus: microbe, parasite or virus in culture. Type of test: cell-based. The conditions noted are these: Human immunodeficiency virus 1, NL43, 48 h, read-out: extrapolated IC50, infection with NL4-3 Env.
Another test relates to HIV-1 X4-28 Env. The test can be described thus: microbe, parasite or virus in culture. Type of test: cell-based. As to conditions: Human immunodeficiency virus 1, 48 h, read-out: extrapolated IC50, infection with X4-28 Env.
Test [3] deals with T1, CXCR4. The test can be described thus: HTRF Tag-lite primary screening: red-CXCL12 binding to HEK293 cells expressing ST-CXCR4. The conditions noted are these: single dose 6.6 µg/mL (compound final concentration in µM in brackets), HTRF ratio of compound divided by that of AMD3100 15 µM, 20 nM red-CXCL12, hit < 1.3. The source says: As a starting point of this study, we set up a high-throughput screening of 6851 compounds available at the time from the CERMN (Centre d’Etude et de Recherche sur le Médicament de Normandie) chemical library for their ability to interact with CXCR4 (see Section 3.3 for details). We applied a homogeneous cell-based binding assay using Homogeneous Time-Resolved Fluorescence resonance energy transfer (HTRF) Tag-lite technology. […] We investigated the capacity of the compounds to inhibit energy transfer between the Lumi4-Tb donor and acceptor red-CXCL12, which results in a decrease in the HTRF signal (i.e., the ratio between the acceptor and donor fluorescence signals at 665 and 620 nm, respectively). […] Each 384-well plate was analyzed independently. First, using negative and positive controls, the value of the Z′ factor [52] was determined. […]
All compounds are in DMSO at a concentration of 3.3 mg/mL (average concentration of 9.85 ± 3.7 mM). […] After a 2 h incubation at 16 °C, the fluorescence emission was measured at 620 nm and 665 nm using an excitation wavelength at 343 nm on a Safire2 (Tecan, Männedorf, Switzerland) microplate reader. The HTRF ratio was defined as following: Ratio = (Fluorescence intensity at 665 nm/Fluorescence intensity at 620 nm) × 10^4. […]

Another test has as its target endogenous CXCR4 (Homo sapiens, UniProt P61073). The test can be described thus: Displacement of 125I-labeled CXCL12 binding in blood mononuclear cells. As to conditions: blood mononuclear cells from a healthy donor, data not shown. A general note: Loss of bound radioactivity is the signal in a displacement assay; it reports binding, not function.
Setting [4] is: primary CD4+ T lymphocytes, NL4-3 and X4-28 Envs.

Structures are written as SMILES. Entries after “also recorded” stand apart in the source; their conditions may differ. Like-named read-outs stand apart in the source and are kept apart here.

Chain of endogenous CXCR4 (P61073 whole entry): as above

In general, IC50 refers to the midpoint of a concentration-inhibition curve. For `C(CCCCCCNC1=NCCN1)CCCCCNC1=NCCN1` [mr20350], at CXCR4 [1], the “inhibition of HTRF at high concentrations” value (from here on “inhibition of HTRF”) is reported as “fully inhibited HTRF”. For the same compound, in test [2] (setting [4]), the anti-HIV-1 activity result is recorded as “observed; also recorded: strongest anti-HIV-1 activity”. The figures for the IC50 in the test with HIV-1 NL4-3 Env and with HIV-1 X4-28 Env were 2.6 µM and 0.72 µM, respectively.
As for `C(CCCNC1=NCCN1)CCNC1=NCCN1` [mr20345], the “HTRF CXCR4-SDF1 Relative HTRF Ratio” value on CXCR4 [3] was 2.78 (13.0). Also, the IC50 at CXCR4 [1] stood at 40.9 ± 23 µM.
As for `C(CCCCCNC1=NCCN1)CCCCCNC1=NCCN1` [mr34200], the IC50 at CXCR4 [1] worked out at 15.5 µM.
Still for that read-out and setting: to `C(CCCCNC1=NCCN1)CCCCNC1=NCCN1` [mr20348] belongs 6.62 ± 4.31 µM.
Take `c1cc(CN2CCCNCCNCCCNCC2)ccc1CN1CCCNCCNCCCNCC1` [AMD3100, reference compound]: in test [2], the anti-HIV-1 activity entry is recorded as “by far the most potent antiviral activity of all tested molecules”.
On to `C(CCCCCNC1=NCCN1)CCCCNC1=NCCN1` [mr20349], for which the IC50 is 0.47 ± 0.36 µM on CXCR4 [1], 30 µM in the test on HIV-1 NL4-3 Env and 1.1 µM in the test with HIV-1 X4-28 Env. Besides, the “inhibition of HTRF” value at CXCR4 [1] is recorded as “fully inhibited HTRF”. Further, the anti-HIV-1 activity result in test [2] (setting [4]) is listed as “observed”. Moreover, the “displacement of 125I-labeled CXCL12 binding” value at endogenous CXCR4 is “confirmed”.
For the compound `C(CCCNC1=NCCN1)CCCNC1=NCCN1` [mr20346], the “HTRF CXCR4-SDF1 Relative HTRF Ratio” value on CXCR4 [3] was 1.87 (12.6). Moreover, the IC50 on CXCR4 [1] was 1.85 ± 0.93 µM.
As for `C(CCCCNC1=NCCN1)CCCNC1=NCCN1` [mr20347], at CXCR4 [1], the IC50 came out at 0.35 ± 0.09 µM and the “inhibition of HTRF” value was “fully inhibited HTRF”. Besides, the anti-HIV-1 activity entry in test [2] (setting [4]) was “not and no effect”.
